These results are taken from paper PMC8162438, “Cancer cell-selective modulation of mitochondrial respiration and metabolism by potent organogold(III) dithiocarbamates” (Chemical Science, 2020).

The test system of this assay is MRC5. In words: MTT cell viability, human fetal lung fibroblasts MRC5. The class given is cell-based. The settings on record: 72 h. The protocol:
All the gold(III) dithiocarbamate compounds display remarkable cell killing potential in a panel of breast, ovarian, lung and leukemia cancers. Preliminary studies focused on different cancer cell lines (MDA-MB-231, MDA-MB-175, and A2780), an immortalized normal retinal epithelial cell line (RPE-NEO) and human fetal lung fibroblasts (MRC5) (Fig. S111–S129 ^†). These adherent cells were exposed to a serial-diluted concentration of all ten compounds for 72 h. The cells were subsequently treated with 3-(4,5-dimethylthiazol-2-yl)-2,5-diphenyltetrazolium bromide (MTT) solutions, dissolved with DMSO and the absorbance at 570 nm was measured with a plate-reader.
In Vitro Biological Assays
Cell Culture. All cell lines were purchased from ATCC and routinely grown in a humidified incubator at 37 °C with 5-10% CO 2. MDA-MB-231, MDA-MB-175, MRC5, RPE-NEO, H460, and K562 were grown in DMEM supplemented with 10% FBS, 1% amphotericin and 1% penicillin/streptomycin. A2780 cells were grown in RPMI supplemented with 10% FBS, 1% amphotericin, and 1% penicillin/streptomycin, and 4 mM glutamine. All supplements along with PBS and trypsin-EDTA were purchased from Corning Inc. and used as is. […]
Cell Viability of 1a-1e and 2a-2e (Adherent Cell Lines). The cell viability of all 10 complexes were performed in MDA-MB-231, MDA-MB-175, A2780, RPE-NEO and MRC5. The cell viability of compound 2a was also determined in H460. Cells were grown to confluency and trypsin was added to detach and harvest cells. The cells were washed with 2 mL of PBS and suspended in 10 mL of the appropriate media. The cells were centrifuged at 2000 rpm for 5 minutes and the pellet washed with 2 mL of PBS then suspended in 5 mL of the appropriate […]
media. The cells were plated at a density of 2,000 cells/well in a 96-well clear bottom plate and allowed to adhere overnight at 37 °C with 5-10% CO 2. The compounds were prepared as a stock in DMSO and used fresh. The compounds were added at seven concentrations with a 3x serial dilution starting at 50 µM for the highest concentration and incubated at 37 °C for 72 h with 5-10% CO 2. The medium was removed and a solution of MTT (100 µL, prepared by dissolving MTT at 5 mg/mL and diluting by 10x with DMEM) was added to each well and incubated for 4 h at 37 ° C with 5-10% CO 2. The dye was removed from each well and 100 µL of DMSO was added to induce cell lysis. The plates were read using a Genios plate reader (λ = 570 nm). The experiment was performed in triplicate and data are plotted as the mean ± s.e.m. (n = 3). Data for 2a can be found in the main text (Figure 6) and the other complexes can be seen in the supplementary figures (S111 – S129). […]
Cells were grown to confluency and centrifuged at 2000 rpm for 5 minutes to collect the cell pellet. The cells were washed with 5 mL of PBS, suspended in 5 mL of DMEM, and centrifuged again at 2000 rpm for 5 minutes to collect the pellet. The pellet was then washed with 2 mL of PBS and suspended in 5 mL of DMEM. The cells were plated at density of 2,000 cells/well in a 96-well white bottom plate. 2a was prepared as a stock solution […]
10% CO 2. The cells were removed from the incubator and allowed to rest at room temperature for 30 minutes. To each designated well was then added 20 µL of CellTiter-Glo solution and orbitally shaken for 5 minutes and the luminescence (1000 ms integration and 150 ms gain) acquired on a Genios plate reader. The experiment was performed in triplicate. Data are plotted […]
Apoptosis Analysis. […]
A stock of 2a was prepared fresh in DMSO and added to the desired well at a concentration of 1 µM with a final volume of 2.5 mL and incubated for 4 h at 37 °C. A stock of H2O2 was prepared in PBS and the cells treated at a final concentration of 2 mM for 1 hour as a […]

pIC50: −log10 of the molar value.

`COc1ccc(N2CC[N+](=C3[S][Au-2]4([S]3)[c]3ccccc3C(=O)c3cccc[n+]34)CC2)cc1.F[P-](F)(F)(F)(F)F` (centres unmarked) [1e]: the pIC50 (commonly −log10 of the IC50, conventionally taken in molar units) is below 4.30.
In the case of `COc1ccc(N2CC[N+](=C3[S][Au-2]4([S]3)[c]3ccccc3Cc3cccc[n+]34)CC2)cc1.F[P-](F)(F)(F)(F)F` (centres unmarked) [2e], the pIC50 was below 4.30.
For `CC[N+](CC)=C1[S][Au-2]2([S]1)[c]1ccccc1C(=O)c1cccc[n+]12.F[P-](F)(F)(F)(F)F` (centres unmarked) [1b] the value was below 4.30.
The result for `F[P-](F)(F)(F)(F)F.O=C1c2cccc[c]2[Au-2]2([S]C(=[N+]3CCCCC3)[S]2)[n+]2ccccc21` (centres unmarked) [1c] reads below 4.30; that for `F[P-](F)(F)(F)(F)F.c1cc[c]2c(c1)Cc1cccc[n+]1[Au-2]21[S]C(=[N+]2CCCCC2)[S]1` (centres unmarked) [2c], below 4.30.
`CC[N+](CC)=C1[S][Au-2]2([S]1)[c]1ccccc1Cc1cccc[n+]12.F[P-](F)(F)(F)(F)F` (centres unmarked) [2b] showed a pIC50 below 4.30.
For `F[P-](F)(F)(F)(F)F.O=C1c2cccc[c]2[Au-2]2([S]C(=[N+]3CCN(c4ccc(Br)cc4)CC3)[S]2)[n+]2ccccc21` (centres unmarked) [1d] the value was below 4.30; for `Brc1ccc(N2CC[N+](=C3[S][Au-2]4([S]3)[c]3ccccc3Cc3cccc[n+]34)CC2)cc1.F[P-](F)(F)(F)(F)F` (centres unmarked) [2d], below 4.30.
